According to patent US4760201A (Exxon Research & Engineering Co., priority 1986, dated 1988):
Several values for one entry are separate records, joined by “and”; a condition that tells them apart may be missing. Equal entries are not always repeated. Where two headings read alike, the source gives them in different places.

What was measured:
[1] = Method: The liquids thus passed to the extraction unit were preheated each to a temperature of 60° C. The reciprocating plate column was provided with a hot water heating jacket maintained at 60° C. […] The liquids thereby accumulated were each analyzed by gas chromatography and nuclear magnetic resonance spectroscopy (NMR) for component identification.
[2] = Partitioning of alcohol into neodecanoic acid from sulfuric acid/alcohol feedstreams (Examples 14-21); details: AS 60%, 60° C.
[3] = Comparative runs: partitioning of SBOH and water into neodecanoic acid from aqueous sec-butanol free of sulfuric acid
Procedure: (§1) In a series of runs, separate portions of the acid/alcohol feedstreams were contacted with the indicated amount of octanoic acid for extraction of sec-butyl alcohol (SBA) therefrom using the indicated contacting temperatures, employing a 60 ml. separatory funnel, with agitation, and employing 3 hours of setting time. The weight percent sec-butyl alcohol in the light phase (i.e., the upper layer comprising the octanoic acid layer) was then analyzed.

[4] = Batch extraction of sec-butyl alcohol (SBA) from acid/alcohol feedstream by aliphatic acids; SBA in light phase; assay type: physicochemical; details: AS 56.7%, ES 0.5
Excerpt: Thereafter, the thus-formed acid/alcohol […] contacted with the selected amount of a carboxylic acid solvent of this invention, and the results thereby obtained are reported in the associated tables below.

[5] = Effect of solvent/feed ratio on selectivity of extraction (H2O/SBA in upper layer); details: 25° C., AS 56.7%, ES 0.5
Procedure: as §1

Compound: CCC(C)OC(C)CC (stereo not drawn) [SBE, secondary butyl ether]
- Overall Partition Coefficients, Wt. Fract. (concentration in light phase / in heavy phase) [1]: 81.2

Compound: CCC(C)O (stereo not drawn) [SBOH, sec-butyl alcohol]
- Overall Partition Coefficients, Wt. Fract. (concentration in light phase / in heavy phase) ([1]; Table 1, residence time 3.52 hours, solvent-to-feed 2.04:1, E.S. 1, A.S. 55%, 60° C.): 1.26
- Overall Partition Coefficients, Wt. Fract. (concentration in light phase / in heavy phase) ([1]; Table 2, residence time 3.62, solvent-to-feed 2.098:1, E.S. 1, A.S. 55%, 60° C.): 0.83
- Overall Partition Coefficients, Wt. Fract. (concentration in light phase / in heavy phase) ([1]; Table 3, residence time 3.66 hours, solvent-to-feed 2.043:1, E.S. 1, A.S. 55%, 60° C.): 1.15
- Overall Partition Coefficients, Wt. Fract. (concentration in light phase / in heavy phase) ([1]; Table 4, residence time 3.66 hrs, solvent-to-feed 2.11:1, solvent feed temp. 30° C., E.S. 1, A.S. 55%, 60° C.): 4.51
- Overall Partition Coefficients, Wt. Fract. (concentration in light phase / in heavy phase) ([1]; Table 5, residence time 3.37 hrs, solvent-to-feed 1.23:1, E.S. 1, A.S. 55%, 60° C.): .627
- Overall Partition Coefficients, Wt. Fract. (concentration in light phase / in heavy phase) ([1]; Table 6, residence time 3.60 hrs, solvent-to-feed 2.06:1, E.S. 1, A.S. 60%, 60° C.): 0.340
- Overall Partition Coefficients, Wt. Fract. (concentration in light phase / in heavy phase) ([1]; Table 7, residence time 3.77 hrs, solvent-to-feed 1.38:1, E.S. 1, A.S. 60 wt. %, 60° C.): 0.267
- Overall Partition Coeff. SBOH ([2]; Example 14, ES 0.2, NDA/SBOH 15.6): 0.3
- Overall Partition Coeff. SBOH ([2]; Example 15, ES 0.2, NDA/SBOH 3.9): 0.35
- Overall Partition Coeff. SBOH ([2]; Example 16, ES 0.2, NDA/SBOH 7.9): 0.33
- Overall Partition Coeff. SBOH ([2]; Example 17, ES 0.2, NDA/SBOH 23.2): 0.31
- Overall Partition Coeff. SBOH ([2]; Example 18, ES 0.2, NDA/SBOH 4.7): 1.35
- Overall Partition Coeff. SBOH ([2]; Example 19, ES 1.0, NDA/SBOH 1.3): 0.25
- Overall Partition Coeff. SBOH ([2]; Example 20, ES 1.0, NDA/SBOH 2.6): 0.24
- Overall Partition Coeff. SBOH ([2]; Example 21, ES 1.0, NDA/SBOH 7.9): 0.34
- Overall Partition Coeff. SBOH ([3]; Comparative Example I, 25° C., start SBOH 47.8 wt %): 4.1
- Overall Partition Coeff. SBOH ([3]; Comparative Example II, 25° C., start SBOH 7.3 wt %): 2.2
- Overall Partition Coeff. SBOH ([3]; Comparative Example III, 25° C., start SBOH 63.9 wt %): 4.0
- Overall Partition Coeff. SBOH ([3]; Comparative Example IV, 25° C., start SBOH 13.9 wt %): 2.2
- Overall Partition Coeff. SBOH ([3]; Comparative Example IX, 60° C., start SBOH 28.3 wt %): 6.0
- Overall Partition Coeff. SBOH ([3]; Comparative Example V, 60° C., start SBOH 45.3 wt %): 6.0
- Overall Partition Coeff. SBOH ([3]; Comparative Example VI, 60° C., start SBOH 7.4 wt %): 4.4
- Overall Partition Coeff. SBOH ([3]; Comparative Example VII, 60° C., start SBOH 61.7 wt %): 6.4
- Overall Partition Coeff. SBOH ([3]; Comparative Example VIII, 60° C., start SBOH 13.5 wt %): 4.5

Compound: O [Water, water]
- Overall Partition Coefficients, Wt. Fract. (concentration in light phase / in heavy phase) [1]: 0.012

Compound: CC(C)(C)CCC(=O)O [neoheptanoic acid]
- SBA in Light Phase ([4]; Table 9, 25 °C, vol:vol 1.0:1): 5.04 wt. %
- SBA in Light Phase ([4]; Table 9, 60 °C, vol:vol 1.0:1): 7.82 wt. %
- selectivity of extraction [5]: high selectivity for alcohol extraction
- wt:wt. ratio H2O/SBA In Upper Layer ([5]; solvent/feed 0.4 (v/v)): 0.099 wt:wt
- wt:wt. ratio H2O/SBA In Upper Layer ([5]; solvent/feed 1.0 (v/v)): 0.054 wt:wt
- wt:wt. ratio H2O/SBA In Upper Layer ([5]; solvent/feed 1.5 (v/v)): 0.045 wt:wt
- wt:wt. ratio H2O/SBA In Upper Layer ([5]; solvent/feed 2.0 (v/v)): 0.067 wt:wt

Compound: CCCCCCCC(=O)O [octanoic acid]
- SBA in Light Phase ([4]; Run 8-1, 60 °C, v:v solvent:feed 1.0): 9.91 wt. %
- SBA in Light Phase ([4]; Run 8-2, 60 °C, v:v solvent:feed 2.0): 7.20 wt. %
- SBA in Light Phase ([4]; Run 8-3, 25 °C, v:v solvent:feed 0.2): 7.38 wt. %
- SBA in Light Phase ([4]; Run 8-4, 25 °C, v:v solvent:feed 0.4): 7.57 wt. %
- SBA in Light Phase ([4]; Run 8-5, 25 °C, v:v solvent:feed 1.0): 6.15 wt. %
- SBA in Light Phase ([4]; Run 8-6, 25 °C, v:v solvent:feed 1.5): 5.37 wt. %
- SBA in Light Phase ([4]; Run 8-7, 25 °C, v:v solvent:feed 2.0): 4.54 wt. %
- SBA in Light Phase ([4]; Table 9, 25 °C, vol:vol 1.0:1): 6.15 wt. %
- SBA in Light Phase ([4]; Table 9, 60 °C, vol:vol 1.0:1): 9.91 wt. %
- selectivity of extraction [5]: increasing amounts of water being removed
- wt:wt. ratio H2O/SBA In Upper Layer ([5]; solvent/feed 0.2 (v/v)): 0.066 wt:wt and 0.079 wt:wt
- wt:wt. ratio H2O/SBA In Upper Layer ([5]; solvent/feed 0.4 (v/v)): 0.055 wt:wt
- wt:wt. ratio H2O/SBA In Upper Layer ([5]; solvent/feed 1.0 (v/v)): 0.067 wt:wt
- wt:wt. ratio H2O/SBA In Upper Layer ([5]; solvent/feed 2.0 (v/v)): 0.101 wt:wt

Compound: butene
- Overall Partition Coefficients, Wt. Fract. (concentration in light phase / in heavy phase) [1]: > 2000
